Laboratory results taken from patent publication US12527789B2, “Inhibition of a tripartite VOR protein complex in multicellular organisms” (TECHNISCHE UNIVERSITÄT DRESDEN, priority 2018, dated 2026).

Test system: nuclear pores and importin β1
Assay: NEI-associated late endosomes and transfer of EV-derived components into the nucleoplasm after importazole treatment
Assay type: cell-based
Description: Referring to FIGS. 1A, 1B and 1C, illustrated are schematic illustrations of data showing the localization and the tripartite structure of a VOR complex. […] Typically, EVs are transported to late endosomes after their endocytosis, wherein the EVs facilitate intercellular communication in diverse cellular processes.

Structure (SMILES): CC(Nc1nc(N2CCCC2)nc2ccccc12)c1ccccc1 (centres unmarked) [importazole]
- transfer of EV-derived components into the nucleoplasm of host cells: inhibition of transfer of EV-derived components into the nucleoplasm of host cells
- presence of nuclear envelope invagination (NEI)-associated late endosomes (host cells after importazole treatment): lack of the nuclear envelope invagination (NEI)-associated late endosomes
